Results published in patent US7740831B2, “Compositions for potentiating glutathione” (Fancl Corporation, priority 2001, dated 2010).

What was measured:
[1] = system: CCD 1059 normal human skin fibroblasts; assay: Measurement of glutathione activity (intracellular glutathione, method of Baker et al.); format: cell-based; conditions: 24 hours
Experimental: The cells were then collected after being cultured for 24 hours. […] The collected cells were disrupted using sonication, and proteins were removed using metaphosphoric acid. Then, the solutions were again neutralized, to thereby produce samples used for glutathione measurement. The measurement of glutathione was performed using the method of Baker et al. (Anal. […] Then, the absorbance at 405 nm was measured, and this was taken as the glutathione concentration.

[2] = system: CCD 1059 normal human skin fibroblasts; assay: Effect of combined use of S-containing compound (cysteine) on intracellular glutathione; format: cell-based; conditions: compound 2.5 μg/ml, control = cysteine only
Experimental: CCD 1059 normal human skin fibroblasts (1.5×10^5 cells) (manufactured by Dainippon Pharmaceutical Co., Ltd.) were inoculated in a petri dish (manufactured by Nunc) with a diameter of 6 cm, and the cells were cultured in Dulbecco's modified Eagle's medium (DMEM) containing 10% deactivated fetal bovine serum (hereafter abbreviated to “FBS”) for 3 days at 37° C. in the presence of 5% carbon dioxide gas. When the cells were 80% confluent, the medium was exchanged with DMEM containing 0.5% fetal bovine serum (hereafter abbreviated to “FBS” in some cases). After the cells were naturalized for 24 hours, the culture medium was removed by suction and exchanged with fresh DMEM containing 0.5% FBS and the test substances were dissolved in ethanol. […] The cells were then collected after being cultured for 24 hours. […] The collected cells were disrupted using sonication, and proteins were removed using metaphosphoric acid. Then, the solutions were again neutralized, to thereby produce samples used for glutathione measurement. […] To describe the method briefly, reduced nicotinamide adenine dinucleotide phosphate (NADPH), glutathione reductase, and 5,5′-dithiobis(2-nitrobenzoic acid) (DNTB) provided as a coloring agent were added to a 2-(N-morpholino)ethanesulfonate buffer (MES buffer), and the mixture was reacted with each measurement sample or a standard substance used to produce a calibration curve. Then, the absorbance at 405 nm was measured, and this was taken as the glutathione concentration.
However, since it was desired to add an S-containing compound at an arbitrary concentration, the culture medium used in the case of this addition was DMEM that contains no S-containing compound (i.e., a medium that was free of methionine, cysteine, or cystine). […] A comparison was made by calculation from the ratio relative to respective control groups in which only cysteine was added in the same amounts (groups in which only cysteine was added were taken as control groups in which the respective final concentrations of cysteine were 200 and 400 μM, and the activities of the respective test substance groups were evaluated as ratios relative to the control groups with the activities of the respective control groups taken as 1).

[3] = system: CCD 1059 normal human skin fibroblasts; assay: Effect of combined use of S-containing compound (cystine) on intracellular glutathione; format: cell-based; conditions: compound 10 μg/ml, control = cystine only
Experimental: CCD 1059 normal human skin fibroblasts (1.5×10^5 cells) (manufactured by Dainippon Pharmaceutical Co., Ltd.) were inoculated in a petri dish (manufactured by Nunc) with a diameter of 6 cm, and the cells were cultured in Dulbecco's modified Eagle's medium (DMEM) containing 10% deactivated fetal bovine serum (hereafter abbreviated to “FBS”) for 3 days at 37° C. in the presence of 5% carbon dioxide gas. When the cells were 80% confluent, the medium was exchanged with DMEM containing 0.5% fetal bovine serum (hereafter abbreviated to “FBS” in some cases). […] Then, the absorbance at 405 nm was measured, and this was taken as the glutathione concentration.
However, since it was desired to add an S-containing compound at an arbitrary concentration, the culture medium used in the case of this addition was DMEM that contains no S-containing compound (i.e., a medium that was free of methionine, cysteine, and cystine). […] A comparison was made by calculation from the ratio relative to respective control groups in which only cystine was added (groups in which only cystine was added were taken as control groups, and the activities of the respective test substance groups were evaluated as ratios relative to the control groups with the activities of the respective control groups taken as 1).

[4] = system: Clone 9 human liver cells; assay: Effect on liver cell (intracellular glutathione); conditions: compound 10 μg/ml, 24 hours
Experimental: Clone 9 human liver cells (8×10^6 cells) (manufactured by Dainippon Pharmaceutical Co., Ltd.) were inoculated in a petri dish (manufactured by Nunc) with a diameter of 6 cm, and the cells were cultured in DMEM containing 10% deactivated FBS for 3 days at 37° C. in the presence of 5% carbon dioxide gas. When the cells were 80% confluent, the medium was exchanged with DMEM containing 0.5% FBS. After the cells were naturalized for 24 hours, the culture medium was removed by suction and exchanged with fresh DMEM containing 0.5% FBS, and the test substances were dissolved in ethanol. […] 24 hours after the addition, the cells were collected, and glutathione measurements were performed by the method described in Example 5.

[5] = system: CCD 1059 normal human skin fibroblasts; assay: Resistance to active oxygen (singlet oxygen, rose bengal) cell damage after glutathione potentiation; format: cell-based; conditions: compound 20 μg/ml, 24 h preincubation then removed; singlet oxygen exposure; untreated control 28
Experimental: Then, preincubation was performed for 24 hours at 37° C., so that the intracellular glutathione concentration was increased. […] The present test was performed in order to evaluate whether it was possible to alleviate the effects of the active oxygen that was generated by increasing the intracellular glutathione concentration, so that the plants, hydrolysates thereof, DPE, and DPE glycosides discovered by the present invention were completely removed after the preincubation.
After the cells were washed, rose bengal (which is a singlet oxygen generating agent) was dissolved in Hanks solution so as to have a final concentration of 50 μM, and was added to the cells. The cells were then irradiated for 10 minutes with visible light, so that the cells were exposed to singlet oxygen. The time for which the cells were immersed in Hanks solution and the time for which the cells were exposed to visible light were the same for all of the groups. After the exposure, the cells were again washed with Hanks solution, and the culture medium was exchanged with DMEM containing 10% FBS. After 3 days, the cells were counted by means of a Coulter counter, and the numbers of living cells were compared. In this comparison, an evaluation was performed with the number of cells in a non-exposed group that was not exposed to singlet oxygen taken as 100%. It is seen from Table 6 that the survival rates of the respective groups exposed to singlet oxygen were improved (compared to a group that was not treated with any test substance (control)) by the addition of the above-mentioned plant extracts, hydrolysates thereof, DPE, and DPE glycosides.

B16 melanoma cells = assay: Skin whitening test (melanin suppression); format: cell-based, mouse; conditions: 3 days; for Melanin suppression rate (compound): 20 μg/ml; for Melanin suppression rate (positive control): 3 mM
Experimental: Melanin suppressing activity was measured by the following test using the extracts of Lamium album, Euphrasia officinalis, Plantago psyllium, Plantago psyllium seeds, Olea europaea, Forsythia suspensa, Conandron ramondioides Siebold et Zucc, Osmanthus fragrans, Osmanthus asiaticus, Syringa vulgaris, Verbena officinalis L., and Momordica charantia L., and hydrolysates thereof obtained in Example 1, DPE obtained in Examples 3 and 4, and the DPE glycosides obtained in Example 5.
Cultured B16 melanoma cells derived from mouse provided as melanin producing cells were cultured in a minimum basic culture medium (MEM) to which FBS was added so as to have a final concentration of 10%. At a concentration of 3×10^3 cell/ml, those cells were inoculated in a 6-well plate (6 ml in each well), and were cultured in a CO2 incubator for 5 days, after which the culture medium was exchanged. […] Then, after further culturing for 3 days under the same conditions, the cells were washed and stripped by a scraper treatment. The cells were then solubilized with sodium dodecylsulfate (SDS), and the absorbance values at 475 nm and 260 nm were measured (these values were taken as S475 and S260). The melanin suppression rate was calculated using the following Equation 1, with the absorbance values at 475 nm and 260 nm obtained for cells cultured in a culture medium to which no test substances were added taken as C475 and C260, respectively. 3 mM vitamin C and 3 mM kojic acid were used as positive controls. As is shown in Tables 7 and 8, the production of melanin is suppressed by the addition of the test substances, so that the test substances show a skin whitening effect.

[6] = system: cystine transporter (xCT); assay: Cystine transporter (xCT) production ability by Western blotting; format: cell-based, human; conditions: compound 20 μg/ml, 24 hours
From the text: When the cells were 80% confluent, the medium was exchanged with DMEM containing 0.5% FBS.

[7] = system: gamma-glutamyl cysteine synthetase mRNA; assay: γ-glutamylcysteine synthetase production promoting activity by RT-PCR; format: cell-based, human; conditions: compound 20 μg/ml, 8 hours
Experimental: After 8 hours, total RNA was collected by using TRIZOL reagent (Life Technologies Oriental, Inc.) following a protocol.
Gamma-glutamyl cysteine synthetase mRNA and G3PDH mRNA expression promoting activities were measured with RT-PCR high (Toyobo Co., Ltd.) using the collected total RNA. The G3PDH gene is known as a housekeeping gene and expresses in all cells constantly, so that the gene is widely used as a control gene. The following primers were used for PCR: 5′-TGA AAC TCT GCA AGA GAA GOG G-3′ (SEQ ID NO: 1) and 5′-GCT TCA TCT GGA AAG AGO AGG G -3′ (SEQ ID NO: 2) (gamma-glutamyl cysteine synthetase); and 5′-ACCACAGTCCATGCCATCAC-3′ (SEQ ID NO: 3) and 5′-TCCACCACCCTGTTGCTGTA-3′ (SEQ ID NO: 4) (G3PDH). […] Then, the intensity of staining was measured using image analysis software ImageMaster 1D (manufactured by Amersham Pharmacia Biotech Co.). The group in which no test substances were added (1% ethanol) was taken as a control, and the amount of expression was evaluated by a comparison of the amounts of expression in cases where test substances were added (with a value obtained by dividing the staining intensity of the γ-glutamylcysteine synthetase mRNA by the staining intensity of G3PDH taken as 1). […]

rats = assay: Long-term oral administration to rats (toxicity); format: in vivo; conditions: 100 days, 1,000 mg/kg per day
From the text: DPE or a glycoside thereof has a low toxicity.

Structure (SMILES)	Glutathione enhancing activity (compound), ratio to control ([1]; 2.5 μg/ml)	Glutathione enhancing activity (compound), ratio to control ([1]; 5 μg/ml)	Glutathione enhancing activity (compound), ratio to control ([1]; 10 μg/ml)	Glutathione enhancing activity (compound), ratio to control ([1]; 20 μg/ml)	Combined effect with cysteine, ratio to control, cysteine 200 μM added group [2]	Combined effect with cysteine, ratio to control, cysteine 400 μM added group [2]	Combined effect with cystine, ratio to control, cystine 200 μM added group [3]	Effect on hepatocyte (glutathione), ratio to control [4]	Survival rate (%: based on non-exposed group) [5]	Melanin suppression rate (compound) (B16 melanoma cells)	Amount of xCT expression (Relative to control) [6]	Gamma-glutamyl cysteine synthetase/G3PDH (Relative to control) [7]	Mortality (rats)	Melanin suppression rate (positive control) (B16 melanoma cells)
OCCc1ccc(O)c(O)c1 [DPE, 2-(3,4-dihydroxyphenyl)ethanol]	1.36	1.85	2.33	2.74	1.25	1.89	3.42	1.16	61%	52.3%	4.8	8.2	no cases of mortality	
OC[C@H]1O[C@@H](OCCc2ccc(O)c(O)c2)[C@H](O)[C@@H](O)[C@@H]1O [DPE-1-O-β-D-Glucopyranocide, 2-(3,4-dihydroxyphenyl)ethanol-1-O-β-D-glucopyranocide]									42%	24.6%				
OCCc1ccc(O)c(O[C@@H]2O[C@H](CO)[C@@H](O)[C@H](O)[C@H]2O)c1 [DPE-3′-O-β-D-Glucopyranocide, 2-(3,4-dihydroxyphenyl)ethanol-3′-O-β-D-glucopyranocide]	1.15	1.19	1.25	1.73	1.26	1.52	1.56	1.26	46%	32.3%	1.3	3.8		
OCCc1ccc(O[C@@H]2O[C@H](CO)[C@@H](O)[C@H](O)[C@H]2O)c(O)c1 [DPE-4′-O-β-D-Glucopyranocide, 2-(3,4-dihydroxyphenyl)ethanol-4′-O-β-D-glucopyranocide]									37%	35.4%				
O=c1cc(CO)occ1O [Kojic acid, reference compound]														39.9%
O=C1O[C@H]([C@@H](O)CO)C(O)=C1O [Vitamin C, reference compound]														23.0%
